Patent US9549945B2, “Use of alkylated semi-synthetic glycosaminoglycosan ethers for the treatment of inflammation” (University of Utah Research Foundation, priority 2008, dated 2017)
“Also recorded” adds a separate entry of the source.

What was measured:
[1] = tested on: LL-37 induced skin inflammation; assay: SAGE topical treatment in LL-37 rosacea model; assay type: in vivo, Balb/c mice; conditions: topical administration
Procedure: Balb/c mice were shaved […] area of skin on the back. We then began topical application of a hyaluronan-cased emollient containing 5% SAGEs (active emollient) or hyaluronic acid based emollient alone to this area of skin every 12 hours. Twenty-four hours later, we injected 40 μL of vehicle (PBS) or cationic peptide (at 320 μM concentration) subcutaneously into the shaved skin in the manner described previously. Injections and topical emollient applications were repeated every 12 h thereafter. Forty-eight hours after the initial injection (four injections in total), animals were lightly anesthetized as described previously. […] The intensity of erythema was assessed as a redness score (from 1 to 5), and the area of erythema was measured with calipers. […]
For each mouse, tissue biopsies (6 mm diameter hole punch) were taken immediately, weighted, frozen and stored at −80° C. Tissue MPO activity was measured using a method by Suzuki et. al. (Suzuki K, Ota H, Sasagawa S, Sakatani T, Fujikura T. Assay method for myeloperoxidase in human polymorphonuclear leukocytes. Anal Biochem 132:345-352, 1983) as modified by Young et. al. (Young J M, Spires D A, Bedord C J, Wagner B, Ballaron S J, De oung LM. The mouse ear inflammatory response to topical arachidonic acid. J Invest Dermatol 82:367-371, 1984). […] MPO enzyme activity was assessed at an absorbance wavelength of 630 nm. […]

IIa = assay: Anti-IIa anticoagulant activity; assay type: biochemical
[2] = target: T1, Hageman factor (Factor XII) (Homo sapiens, UniProt P00748); assay: Hageman factor (Factor XII) activation in pooled human plasma, amidolytic activity; assay type: biochemical; conditions: FIG. 19
T1 construct: from tissue; host or cells: pooled human plasma
T1 sequence (P00748 20-615): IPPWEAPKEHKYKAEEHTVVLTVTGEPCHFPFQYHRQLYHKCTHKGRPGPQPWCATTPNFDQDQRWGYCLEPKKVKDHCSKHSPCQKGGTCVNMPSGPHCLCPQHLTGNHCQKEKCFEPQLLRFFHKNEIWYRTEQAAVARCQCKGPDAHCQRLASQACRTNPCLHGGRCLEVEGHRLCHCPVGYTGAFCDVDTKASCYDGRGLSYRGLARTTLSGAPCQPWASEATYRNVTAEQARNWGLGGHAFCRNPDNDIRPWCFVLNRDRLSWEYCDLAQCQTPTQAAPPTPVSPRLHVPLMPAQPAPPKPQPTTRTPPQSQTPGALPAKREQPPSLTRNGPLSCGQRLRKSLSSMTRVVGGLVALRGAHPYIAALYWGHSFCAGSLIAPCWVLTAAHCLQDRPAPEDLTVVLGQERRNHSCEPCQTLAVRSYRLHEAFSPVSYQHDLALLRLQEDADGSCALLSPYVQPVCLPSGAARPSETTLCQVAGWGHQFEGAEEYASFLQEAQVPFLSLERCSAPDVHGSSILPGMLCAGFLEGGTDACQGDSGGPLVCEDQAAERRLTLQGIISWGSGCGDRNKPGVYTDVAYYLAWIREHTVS
Procedure: Nat Biotech 26:669-675, 2008). […] Amidolytic activity specific for active kallikrein was determined by adding D-Pro-Phe-Arg-p-NA and following change in absorbance at […].

Xa = assay: Anti-Xa anticoagulant activity; assay type: biochemical
[3] = tested on: RAGE expression in ARPE-19 cells; assay: AGE (CML-BSA)-induced RAGE expression in ARPE-19 cells (immunoblot); assay type: cell-based, human; conditions: ARPE-19 cells on CML-BSA coated plates
Procedure: Experiments studying the biology of RAGE in cultured RPE cells using the ARPE-19 human RPE cell line were conducted. As shown in immunoblots (FIG. 17), ARPE-19 cells express at least 4 isoforms of RAGE ranging from 45-50 kDa in cell lysates, and secrete these isoforms into conditioned media. […] Because RAGE ligation activates the transcription factor NF-κB, enhanced expression of RAGE greatly promotes pro-inflammatory signaling. […] This would prevent “feed-forward” pro-inflammatory increases in RAGE expression itself by RAGE ligation.

ARPE-19 cells = assay: AGE-BSA induced apoptosis of ARPE-19 cells (Live/Dead stain); assay type: cell-based, human; conditions: AGE-BSA 25 μM, 40 h; test substance 200 μM
Procedure: The ability of AGE products to induce RPE cell apoptosis was investigated. ARPE-19 cells were grown to confluence on round coverslips, then transferred to new dishes for exposure to 25 μM AGE-BSA for 40 h. Apoptosis was then assayed with Molecular Probes Fixable Live/Dead Cell Stain Kit (L11101, Eugene, Oreg.). […] Nuclei are stained […] with DAPI; dead cells are stained green. A. BSA control. Some dead cells are noted at the edges of the coverslip, but live and dead cells are interspersed at the interface. B. AGE-BSA (25 μM). Significant cell death is seen around the edges, and the boundary between live and dead cells is stark. C. AGE-BSA (25 μM)+ODSH (200 μM).

Hyaluronic acid [HA, reference compound]
MPO activities in LL-37 rosacea model, SAGE vs. HA [1]: did not alleviate | inflammation in LL-37 rosacea model, SAGE vs. HA [1]: did not alleviate inflammation

heparin
anti-IIa anticoagulant activity (IIa): 150 U/mg | concentration that activates Factor XII [2]: 400 ng/mL | anti-Xa anticoagulant activity (Xa): 150 U/mg

2-O, 3-O desulfated heparin [ODSH]
up-regulation of RAGE expression by CML-BSA [3]: prevented up-regulation of RAGE expression | AGE-induced apoptosis (ARPE-19 cells): some protection but significant apoptosis still occurs; also recorded: reduced
